Publication PMC9253294, “Differential Activation of TRPM8 by the Stereoisomers of Menthol” (Frontiers in Pharmacology, 2022)

Experiments:
[1] = system: residue I846 in the S4 of TRPM8; test: Thermodynamic mutant cycle analysis (TMCA) with patch-clamp recordings, residue I846 (I846V mutant); assay type: cell-based, mouse; conditions: WT vs I846V
Method: (§1) Murine TRPM8 was used in this study. […] Point mutations were made by Fast Mutagenesis Kit V2 (SBS Genetech). Primers were used to generate point mutations.
(§2) HEK293T cells were cultured in Dulbecco’s modified eagle medium supplemented (DMEM) with 10% fetal bovine serum and 1% penicillin-streptomycin solution at 37°C with 5% CO2. When cells grow up to 60%–70%, plasmids were transfected with lipofectamine 2000 following the manufacturer’s protocol. Patch-clamp recordings were performed 18–24 h after transfection.
Patch-clamp recordings were performed using a HEKA EPC10 amplifier driven by PatchMaster software (HEKA). Patch pipettes were prepared from borosilicate glass and fire-polished to a resistance of 4–6MΩ. A solution (pH 7.25) containing 130 mM NaCl, 0.2 mM EDTA, and 3 mM HEPES was used in both bath and pipette for recording. For whole-cell recording, cells were detached by trypsin and plated on the microscope cover glass for 30–60 min before the experiment. Transfected cells could be identified by green fluorescence. Cells were clamped at +80 mV and −80 mV for 350 ms, respectively, during recording, and the average current in the last 40 ms was performed. […]
(§3) Data from whole-cell recordings were analyzed in Igor Pro (WaveMatrix). […]
(§4) The P o of mouse TRPM8 activated by (−)-menthol was measured through single-channel recordings as in our previous study ([Xu et al., 2020]), and P o of TRPM8 mutant channels activated by (−)-menthol was estimated from noise analysis through whole-cell recordings. The mean current amplitude (I), the squared deviations in current amplitude from the mean value (σ ^2), and the single-channel current (i) were measured experimentally from a membrane patch of ion channels. Then, the number of ion channels clamped into that patch (N) is determined as N=I^2/i⋅I−σ^2.
For TRPM8 activation by other stereoisomers, P o max was measured from the concentration–response curve and L was determined from P o max by L = P o max/(1 − P o max). Both K d and L contribute to the measured apparent affinity by the equation EC50 = K d/(1 + L). […]

[2] = design: method as in Hopp, 1993; Barel et al., 2009; conditions: human taste dilution studies; ref Hopp, 1993; Barel et al., 2009; cited from earlier work
mouse TRPM8 = target: T1, mouse TRPM8 (Mus musculus, UniProt Q8R4D5); test: Whole-cell patch-clamp recordings of wild-type TRPM8 in transfected HEK293T cells; assay type: cell-based; conditions: for maximum current activated: −80 mV, normalized to 2 mM (−)-menthol; for EC50: WT TRPM8, whole-cell, ~25°C
T1 construct: expressed in transfected cells; host or cells: HEK293T
Method: as §1, §2
(§5) Patch-clamp recordings were performed using a HEKA EPC10 amplifier driven by PatchMaster software (HEKA). Patch pipettes were prepared from borosilicate glass and fire-polished to a resistance of 4–6MΩ. A solution (pH 7.25) containing 130 mM NaCl, 0.2 mM EDTA, and 3 mM HEPES was used in both bath and pipette for recording. For whole-cell recording, cells were detached by trypsin and plated on the microscope cover glass for 30–60 min before the experiment. Transfected cells could be identified by green fluorescence. Cells were clamped at +80 mV and −80 mV for 350 ms, respectively, during recording, and the average current in the last 40 ms was performed. All recordings were performed at room temperature (∼25°C).
To perfuse (−)-menthol and other isomers during the patch-clamp recording, a rapid solution changer with a gravity-driven perfusion system was used (RSC-200, Bio-Logic). Each solution was delivered through a separate tube, so there was no mixing of solutions. The pipette tip was placed right in front of the perfusion outlet during recording to ensure the solution exchange was complete.
Data from whole-cell recordings were analyzed in Igor Pro (WaveMatrix). EC50 values were derived from fitting a Hill equation to the concentration–response relationship. Changes in EC50 by point mutation may be caused by either perturbation of ligand binding or channel gating or both. To distinguish these possibilities, the dissociation constant (K d) for ligand binding is estimated assuming the following gating scheme: C0↔KdC1↔LO, where L is the equilibrium constant for the final closed-to-open transition.
For TRPM8 activation by other stereoisomers, P o max was measured from the concentration–response curve and L was determined from P o max by L = P o max/(1 − P o max). Both K d and L contribute to the measured apparent affinity by the equation EC50 = K d/(1 + L).

[3] = system: residue D802 in the S3 of TRPM8; test: Thermodynamic mutant cycle analysis (TMCA) with patch-clamp recordings, residue D802; assay type: cell-based, mouse; conditions: cycle (−)-menthol vs (+)-neomenthol, WT vs D802 mutant
Method: as §1, §2
Patch-clamp recordings were performed using a HEKA EPC10 amplifier driven by PatchMaster software (HEKA). […] Transfected cells could be identified by green fluorescence. […]
as §3
as §4, with “N=I^2/i⋅I−σ^2. […]” for “N=I^2/i⋅I−σ^2.”

TRPM8 R842K mutant = target: T2, TRPM8 R842K mutant (Mus musculus, UniProt Q8R4D5, R842K); test: Whole-cell patch-clamp recordings of the R842K mutant channel; assay type: cell-based; conditions: −80 mV
T2 construct: expressed in transfected cells; host or cells: HEK293T
Method: as §1, §2, §5
To perfuse (−)-menthol and other isomers during the patch-clamp recording, a rapid solution changer with a gravity-driven perfusion system was used (RSC-200, Bio-Logic). […]

[4] = +80 mV, compared to (−)-menthol

T1 sequence (Q8R4D5 whole entry): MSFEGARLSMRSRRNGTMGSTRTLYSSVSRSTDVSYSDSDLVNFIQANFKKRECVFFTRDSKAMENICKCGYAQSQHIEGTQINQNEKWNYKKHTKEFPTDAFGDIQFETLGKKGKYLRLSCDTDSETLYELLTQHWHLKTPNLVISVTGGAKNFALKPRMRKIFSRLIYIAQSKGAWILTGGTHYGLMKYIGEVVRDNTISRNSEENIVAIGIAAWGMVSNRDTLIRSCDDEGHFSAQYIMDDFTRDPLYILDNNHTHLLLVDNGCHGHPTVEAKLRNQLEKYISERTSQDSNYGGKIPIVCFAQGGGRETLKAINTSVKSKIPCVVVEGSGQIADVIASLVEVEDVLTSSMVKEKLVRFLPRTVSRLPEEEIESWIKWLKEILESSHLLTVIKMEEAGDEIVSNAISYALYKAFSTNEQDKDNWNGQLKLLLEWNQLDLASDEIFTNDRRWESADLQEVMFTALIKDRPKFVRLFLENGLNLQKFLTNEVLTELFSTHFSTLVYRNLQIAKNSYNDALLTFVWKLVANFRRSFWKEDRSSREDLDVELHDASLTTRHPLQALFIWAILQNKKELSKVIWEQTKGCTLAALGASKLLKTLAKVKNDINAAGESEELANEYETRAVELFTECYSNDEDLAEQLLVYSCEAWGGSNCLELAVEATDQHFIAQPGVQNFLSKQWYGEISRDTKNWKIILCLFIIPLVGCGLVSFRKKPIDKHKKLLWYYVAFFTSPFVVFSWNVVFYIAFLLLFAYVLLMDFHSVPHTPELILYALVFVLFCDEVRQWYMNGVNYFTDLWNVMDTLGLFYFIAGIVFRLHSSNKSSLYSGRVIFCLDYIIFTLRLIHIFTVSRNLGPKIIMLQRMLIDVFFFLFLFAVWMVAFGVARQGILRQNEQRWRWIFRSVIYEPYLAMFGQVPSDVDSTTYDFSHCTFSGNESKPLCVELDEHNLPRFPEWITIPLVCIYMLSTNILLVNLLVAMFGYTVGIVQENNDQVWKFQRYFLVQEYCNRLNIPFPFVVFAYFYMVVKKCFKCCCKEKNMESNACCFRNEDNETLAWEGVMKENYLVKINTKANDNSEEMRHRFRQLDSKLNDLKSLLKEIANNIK
T2 sequence (Q8R4D5 whole entry R842K): as the sequence (Q8R4D5 whole entry) above, with R842K counted along it

| SMILES | coupling energy ([1]; +80 mV, cycle (−)-menthol vs (+)-neoisomenthol) [kT] | coupling energy ([1]; −80 mV, cycle (−)-menthol vs (+)-neoisomenthol) [kT] | cooling thresholds [2] | Kd (binding affinity from gating scheme) (mouse TRPM8; [4]) | maximum current activated (mouse TRPM8) | coupling energy ([3]; +80 mV) [kT] | coupling energy ([3]; −80 mV) [kT] | activation of the R842K mutant (TRPM8 R842K mutant) | coupling energy ([1]; ±80 mV, cycle (−)-menthol vs (+)-neomenthol, threshold 1.5 kT) | L value (gating equilibrium constant) (mouse TRPM8; [4]) | EC50 (mouse TRPM8; +80 mV) [µM] |
| --- | --- | --- | --- | --- | --- | --- | --- | --- | --- | --- | --- |
| CC(C)[C@H]1CC[C@@H](C)C[C@H]1O [(+)-neoisomenthol] | 3.25 ± 0.11 | 3.10 ± 0.18 | much higher cooling thresholds | slightly decreased affinity | much reduced |  |  |  |  |  |  |
| CC(C)[C@@H]1CC[C@@H](C)C[C@@H]1O [(+)-neomenthol] |  |  |  | slightly decreased affinity | much reduced | 1.81 ± 0.10 | 2.12 ± 0.06 | cannot activate | large coupling energy values | significantly reduced | 206 ± 11.4 |
| CC(C)[C@@H]1CC[C@@H](C)C[C@H]1O [(−)-menthol] |  |  | lowest cooling thresholds |  |  |  |  |  |  |  | 62.6 ± 1.2 |
